Assays:
[1] = tested on: Blumeria (Erysiphe) graminis DC. f.sp. tritici E. Marchal; experiment: Wheat Powdery Mildew (WPM) curative fungicidal activity, inoculation 3 days before spray application on wheat plants; format: in vivo; set-up: key to WPM 3 day curative Antisporulation effect: +++ = complete (no spore release); ++ = moderate; + = slight; o = none; details: for Emax at 0.2 ppm / Emax at 1 ppm / Emax at 5 ppm / Emax at 25 ppm / Emax at 125 ppm: Blumeria, 72 h, WPM 3 da C (3 day curative), wheat variety Kanzler, read-out: Disease control (% efficacy); for Emax at 0.2 ppm: rate 0.2 ppm; for Emax at 125 ppm: rate 125 ppm; for WPM 3 day curative % disease control / WPM 3 day curative Antisporulation effect: Comparison test (Table IV), 200 l/ha
Source text: (§1) • Wheat Powdery Mildew (WPM): • HOST: Wheat (Triticum aestivum L.) variety Kanzler • PATHOGEN: Blumeria (Erysiphe) graminis DC. f.sp. tritici E. Marchal
(§2) • 1. Wheat seed (approximately 8-10/pot) is planted in 6 cm diameter plastic pots and maintained in the greenhouse. • 2. When the primary leaf (wheat) is fully expanded, formulated test compounds are sprayed with a single nozzle overhead track sprayer at a rate of 200 l/ha. Plants are then allowed to air-dry. • 3. Inoculation precedes treatment by 3 days in the case of curative evaluations and follows treatment by 4 or 5 days in case of residual evaluations. For inoculation, plants are set up on greenhouse benches with bottom watering mats and inoculated by dusting them with conidia from powdery mildew infected plants (stock cultures at an age of 10-14 days). Between inoculation and treatment for curative evaluations and between treatment and inoculation for residual evaluations, plants are maintained in the greenhouse with bottom watering. • 4. Disease on the primary leaf as percent leaf area with disease symptoms/signs is evaluated about 7 days after inoculation. In the case of wheat, the tips and bases of the leaves are excluded from the evaluation.
(§3) Percent disease control is then calculated by the following formula: % disease control = 100 -(% infection in treated plants)/(% infection in untreated plants)x 100 [formula]
(§4) • 1. Technical compounds are formulated in a solvent/surfactant system consisting of 5% acetone and 0.05% Tween 20 in deionized water. Compounds are dissolved in acetone prior to addition of the water; the Tween 20 can be added through either the acetone or the water. Dilutions are made using the solvent/surfactant system. Formulated compounds are prepared using deionized water. • 2. Two kinds of controls are included: • Plants treated with the solvent/surfactant solution and inoculated (Solvent Blank). • Untreated plants which are inoculated (Inoculated Control).
(§5) The fungicidal activity against wheat powdery mildew of the hydroxybenzophenones according to this invention has been compared with a fungicidal benzophenone known from EP 0 727 141 in the following table. Compounds applied to seedling wheat plants using a single-nozzle overhead track sprayer at an application rate of 200 l/ha.

[2] = tested on: Blumeria (Erysiphe) graminis DC. f.sp. tritici E. Marchal; experiment: Wheat Powdery Mildew (WPM) residual fungicidal activity, inoculation 4 or 5 days after spray application on wheat plants; format: in vivo; details: for Emax at 0.2 ppm / Emax at 1 ppm / Emax at 5 ppm / Emax at 25 ppm / Emax at 125 ppm: Blumeria, WPM 4/5 da R (4/5 day residual), wheat variety Kanzler, read-out: Disease control (% efficacy); for Emax at 0.2 ppm: rate 0.2 ppm; for Emax at 125 ppm: rate 125 ppm; for WPM 4 day residual % disease control: Comparison test (Table IV), 200 l/ha
Source text: as §1, §2, §3, §4
4/5 da R = 4/5 day residual Inoculation 4 or 5 days AFTER application
as §5

Row | SMILES | Emax at 0.2 ppm [1] [%] | Emax at 1 ppm ([1]; rate 1 ppm) [%] | Emax at 5 ppm ([1]; rate 5 ppm) [%] | Emax at 25 ppm ([1]; rate 25 ppm) [%] | Emax at 125 ppm [1] [%] | Emax at 0.2 ppm [2] [%] | Emax at 1 ppm ([2]; rate 1 ppm) [%] | Emax at 5 ppm ([2]; rate 5 ppm) [%] | Emax at 25 ppm ([2]; rate 25 ppm) [%] | Emax at 125 ppm [2] [%] | WPM 3 day curative % disease control ([1]; rate 1 ppm) [%] | WPM 3 day curative Antisporulation effect ([1]; rate 1 ppm) | WPM 3 day curative % disease control ([1]; rate 5 ppm) [%] | WPM 3 day curative Antisporulation effect ([1]; rate 5 ppm) | WPM 3 day curative % disease control ([1]; rate 25 ppm) [%] | WPM 3 day curative Antisporulation effect ([1]; rate 25 ppm) | WPM 4 day residual % disease control ([2]; rate 1 ppm) [%] | WPM 4 day residual % disease control ([2]; rate 5 ppm) [%] | WPM 4 day residual % disease control ([2]; rate 25 ppm) [%]
1 | COc1cc(C)c(C(=O)c2c(OC(C)=O)ccc(Br)c2C)c(OC)c1OC [Example 1, 2-acetoxy-5-bromo-6,6'-dimethyl-2',3',4'-trimethoxybenzophenone] | 2 | 17 | 33 | 49 | 55 | 53 | 84 | 98 | 100 | 100 |  |  |  |  |  |  |  |  | 
2 | COc1cc(C)c(C(=O)c2c(O)ccc(Br)c2C)c(OC)c1OC [Example 2, 5-bromo-6,6'-dimethyl-2-hydroxy-2',3',4'-trimethoxybenzophenone] | 13 | 23 | 37 | 53 | 59 | 86 | 98 | 100 | 100 | 100 | 10 | + | 22 | + | 40 | +++ | 52 | 78 | 100
3 | CCCCOc1c(OC)c(OC)cc(C)c1C(=O)c1c(Cl)cccc1Cl [standard, 2'-n-butyloxy-2,6-dichloro-3',4'-dimethoxy-6'-methylbenzophenone, reference compound] |  |  |  |  |  |  |  |  |  |  | 0 | 0 | 3 | 0 | 6 | + | 15 | 47 | 92

— patent publication EP0967196B1, “Substituted 2-hydroxybenzophenones, preparation thereof, their use as fungicide and their fungicidal compositions” (BASF AKTIENGESELLSCHAFT, priority 1998, dated 1999)
